US20220064141A1, “BENZOPYRIDONE HETEROCYCLIC COMPOUND AND USE THEREOF” (BrightGene Bio-Medical Technology Co., Ltd., priority 2019, published 2022)

How the values were obtained:
Type in all cases: cell-based
[1] = test system: A549 human non-small cell lung cancer cells with high expression of KRAS G12S; experiment: Cell Titer-Glo cell viability, A549 cells (72 h)
From the text: (§1) Effect Example 2: Pharmacodynamic Assay 2 (Determination of the efficacy of the compounds of the present disclosure on HCT116 human colon cancer cells with high expression of KRAS G13D and A549 human non-small cell lung cancer cells with high expression of KRAS G12S)
(§2) The following method was used to determine the effects of the compounds of the present disclosure on tumor cell proliferation.
(§3) For KRAS G13D subtype, HCT116 human colon cancer cell was used. For KRAS G12S subtype, A549 human non-small cell lung cancer cell was used. The efficacy of the compounds in inhibiting cancer cell viability was determined. HCT116 cells or A549 cells were cultured in a DMEM medium containing 10% fetal bovine serum, 100 U penicillin and […] streptomycin. The cells were cultured in an incubator with 5% CO2 at 37° C. Cancer cell viability was evaluated by determining the content of ATP with Cell Titer-Glo® kit (Luminescent Cell Viability Assay kit, please refer to the manufacturer's instructions for use) and evaluating the inhibition of cell growth.
(§4) The experimental method was proceeded in accordance with the steps in the instructions for the kit, and was described briefly as follows. The test compounds were first dissolved in DMSO to prepare stock solutions, and then the stock solutions were subjected to gradient dilution with the culture media of the corresponding cells, thereby preparing test samples. The final concentrations of the compounds were in the range of 30 μM to 0.01 nM. Tumor cells in logarithmic growth phase were seeded into a 96-well cell culture plate at an appropriate density. After the cell culture plate was left overnight in an incubator with 5% CO2 at 37° C., the test compound samples were added thereto and then the cells were further cultured for 72 hours. After the incubation was complete, an appropriate volume of Cell Titer-Glo® reagent was added into each well, and the cells were incubated at 37° C. for 1 to 4 hours. Then, the […] was read on a microplate reader. The percentage inhibition rates of the compounds at each concentration point were calculated by comparing the absorbance values of the sample wells with that of the control group (0.3% DMSO), and then non-linear regression analysis of the concentration of the compound vs inhibition rate was performed by using GraphPad Prism 5 software, thereby obtaining IC50 values indicating the inhibitory effects of the compounds on cell proliferation.

[2] = test system: NCI-H358 human non-small cell lung cancer cell with KRAS G12C mutation; experiment: Cell Titer-Glo cell viability, NCI-H358 cells (72 h); conditions: Homo sapiens, numeric values
From the text: Effect Example 1: Pharmacodynamic Assay 1 (Determination of the efficacy of the compounds of the present disclosure on NCI-H358 human non-small cell lung cancer cell with KRAS G12C mutation)
The following method was used to determine the effect of the compounds of the present disclosure on tumor cell proliferation.
as §3, with “For the” for “For”, “G12C” for “G13D”, “NCI-H358” for “HCT116 human colon cancer cell was used. For KRAS G12S subtype, A549 human”, “cells with KRAS G12C mutation were used to determine the” for “cell was used. The”, “viability. NCI-H358” for “viability was determined. HCT116 cells or A549”
as §4, with “reader.” for “reader. The percentage inhibition rates of the compounds at each concentration point were calculated by comparing the absorbance values of the sample wells with that of the control group (0.3% DMSO), and then non-linear regression analysis of the concentration of the compound vs inhibition rate was performed by using GraphPad Prism 5 software, thereby obtaining IC50 values indicating the inhibitory effects of the compounds on cell proliferation.”

[3] = test system: HCT116 human colon cancer cells with high expression of KRAS G13D; experiment: Cell Titer-Glo cell viability, HCT116 cells (72 h); conditions: HCT-116
From the text: as §1, §2, §3, §4

| Structure (SMILES) | IC50 [1] | IC50 [2] | IC50 [3] | IC50 ([2]; NCI-H358, 72 h) |
| --- | --- | --- | --- | --- |
| C=CC(=O)N1CCN(c2ncnc3c(F)c(-c4c(O)cccc4F)c(Cl)cc23)CC1 [ARS-1620, reference compound] | > 3000 nM | 226 nM | > 3000 nM |  |
| C=CC(=O)N1CCN(c2c(C#N)c(=O)n(-c3ccccc3C(C)C)c3cc(-c4c(C)ccc5[nH]ncc45)c(Cl)cc23)CC1 [Compound I-1] | > 3000 nM |  | > 3000 nM | 1170 nM |
| C=CC(=O)N1CCN(c2c(C#N)c(=O)n(-c3ccccc3C(C)C)c3cc(-c4c(C)ccc5[nH]ncc45)c(Cl)cc23)[C@@H](C)C1 [Compound I-2-1] | > 3000 nM |  | > 3000 nM | 1150 nM |
